Earlier results, collected in patent US12564599B2, “Pharmaceutical composition comprising tetrahydrocannabivarin for the prevention and treatment of overweight” (CepVentures International Corporation, priority 2019, dated 2026).

Conditions: over a 6 month or a 1 year period

## CC(C)CC(N(C)C)C1(c2ccc(Cl)cc2)CCC1 (stereo not shown) [Sibutramine]
  reduces body weight: about 10%
